Test [1] has as its system hepatic disorders induced by D-galactosamine. In words: Hepatic disorders induced by D-galactosamine in rats (serum GOT, GPT, bilirubin, complement value). Format: in vivo, Wister male rats. To be noted: DSCG i.p. 1 mg/kg, GalN 250 mg/kg i.p., serum two days after GalN. The method, then: In the evaluation tests, 8 to 9 weeks old Wister male rats were used. Five rats were used in each test group. The rats were given standard chow and water ad libitum.
D-Galactosamine hydrochloride (GalN) was dissolved in sterilized physiological saline and the pH thereof was adjusted to 7. The resultant solution was peritoneally administered to each rat at a dosage of 250 mg/kg. To one control group, only GalN was injected, and physiological saline was administered to the other control group instead of pionin. Furthermore, only physiological saline but no GaIN was injected to the physiological saline administration group.
The pionin was administered as follows. It is diluted 10, 100, and 1000 times with dextrose and these diluted powders were dissolved in saline. All drugs were intravenously or orally administered at doses of 0.1, 0.5, 1, and 10 pg/kg. The administration was carried out from five days before to the day after the GaIN injection.
The rats were killed two days after the injection of GalN and blood was collected. The blood samples were allowed to stand at room temprature for one hour and serum was then centrifugally separated at 2500 rpm for 10 minutes.
The determination of GOT and GPT in the serum samples was carried out according to a modification of the Reitman-Framkel method [see Amir. J. Clin. Pothil. 28, 56 (1957) and J. Clin. Invest. 34, 131 (1955)], the determination of bilirubin was carried out according to a modification of Jendrassik-Grof method [see Clinical Chemistry, 19, 984-993 (1973)], and the determination of the complement value was carried out according to the Mayer method (see Experimental Immunochemistry, 2, 133-240, 1961).
The results are shown in Table 2 (i.e., intravenous administration of pionin) and Table 3 (i.e., oral administration of pionin). Disodium cromoglycate (i.e., DSCG) was used as a control.

Test [2] has the same test system. Described as above. As to conditions: DSCG i.p. 1 mg/kg, GalN 250 mg/kg i.p., serum two days after GalN. The test is classed as in vivo, Wister male rats. The source holds these as a separate data set.
For test [3], the system named is hepatic necrocytosis induced by carbon tetrachloride. In words: Hepatic necrocytosis induced by carbon tetrachloride (in vivo), serum GOT and GPT. More on the design: species or system SD male rats. To be noted: for Enzyme Activity GOT (U/L) / Enzyme Activity GPT (U/L): 10 µg/kg, 6 administrations, CCl4 0.5 ml/kg i.p. The method, then:
In the evaluation tests, 6 weeks old SD male rats were used. […] The rats were freely fed or supplied with a solid feed and drinking water.
Carbon tetrachloride (CC14) was diluted with an olive oil and was peritoneally injected in each rat at a dosage of 0.5 ml/kg. To the control group, only CC14 diluted with the olive oil and a 5% gum arabic solution containing no active ingredient were administered. Furthermore, only the olive oil but no CC14 was administered to the olive oil injection group in the Tables.
The methincyanine compounds listed in Tables 4 to 6 were administered as follows. Methincyanine compounds were diluted 100 times with dextrose dissolved in 5% gum arabic solutions. The administration schedules were such that the methiocyanine compounds were administered 6 times in total from 5 days before the CC14 injection to the day of the injection.
Blood was sampled from the orbital veniplex of the rat and was allowed to stand at room temperature for one hour. The blood sample was then centrifugally separated at 2800 rpm for 10 minutes. The resultant supernatant was used as a serum sample.
The determination of GOT and GPT in the serum sample was carried out by using a determination kit (available from Boeklinger-Yamanouchi Co.) and the results were recorded in an automatic analyzer (available from FLEXIGEM Co.).

With `O=C(O)c1cc(=O)c2c(OCC(O)COc3cccc4oc(C(=O)O)cc(=O)c34)cccc2o1` [DSCG, Disodium cromoglycate, reference compound], the “Enzyme activity GPT (K.U.)” value in test [1] (Table 2 experiment) is 220 ± 20 K.U. Besides, in test [1] (Table 3 experiment), the “Bilirubin” value worked out at 0.21 mg/dL and the “Enzyme activity GOT (K.U.)” value is reported as 480 ± 50 K.U. In test [2] (Table 2 experiment), the “Bilirubin” value amounted to 0.29 mg/dL, the “Complement value (%)” value worked out at 88.4% and the “Enzyme activity GOT (K.U.)” value came out at 400 ± 42 K.U. Also, in test [2] (Table 3 experiment), the “Complement value (%)” value was determined as 80.4% and the “Enzyme activity GPT (K.U.)” value came out at 230 ± 33 K.U.
In the case of `CCCCCCCCCCCCN1C(C)=CSC1=Cc1scc(C)[n+]1CCCC` [Compound of Example 1, 2-[2-(3-dodecyl-4-methyl-4-thiazolin-2-ylidene)methyl]-3-butyl-4-methyl thiazolinium iodide], in test [3] (Table 6, oral), the “Enzyme Activity GOT (U/L)” value is listed as 627 ± 92 U/L and the “Enzyme Activity GPT (U/L)” value is reported as 198 ± 37 U/L. Also, the “inhibiting liver necrocytosis induced by CCl4 (result in words)” value in test [3] (in vivo, summary of Tables 4 to 6) was “strong inhibiting activities against liver necrocytosis induced by CC14 when compared with pionin”.
Regarding `CCCCCCCCCCCCN1C(C)=CSC1=Cc1scc(C)[n+]1CC` [Compound of Example 3, 2-[2-(3-dodecyl-4-methyl-4-thiazolin-2-ylidene)methyl]-3-ethyl-4-methyl thiazolinium iodide], in test [3] (Table 5, oral), the “Enzyme Activity GOT (U/L)” value is 435 ± 67 U/L and the “Enzyme Activity GPT (U/L)” value worked out at 107 ± 18 U/L.
Turning to `CCCCCCC[n+]1cc(C)sc1C=C1SC=C(C)N1CCCC` [Compound of Example 4, 2-[2-(3-butyl-4-methyl-4-thiazolin-2-ylidene)methyl]-3-heptyl-5-methyl thiazolinium iodide], in test [3] (Table 5, oral), the “Enzyme Activity GOT (U/L)” value is 386 ± 50 U/L and the “Enzyme Activity GPT (U/L)” value was determined as 118 ± 21 U/L.
For `CCCCCCC[n+]1c(C=C2SC=C(C)N2CCCC)sc(C)c1C` [Compound of Example 5, 2-[2-(3-butyl-4-methyl-4-thiazolin-2-ylidene)methyl]-3-heptyl-4,5-dimethyl thiazolinium iodide] the same measures were 393 ± 59 U/L and 135 ± 29 U/L.
Consider `CCCCCCCCCCN1C(C)=CSC1=Cc1scc(C)[n+]1CCCC` [Compound of Example 8, 2-[2-(3-decyl-4-methyl-4-thiazolin-2-ylidene)methyl]-3-butyl-4-methylthiazolinium iodide], for which, in test [3] (Table 5, oral), the “Enzyme Activity GOT (U/L)” value is recorded as 310 ± 68 U/L and the “Enzyme Activity GPT (U/L)” value was 99 ± 27 U/L.

The values are drawn from patent EP0198605A1, “Prophylaxis of pharmacotherapy of liver disorders” (TEIJIN LIMITED, priority 1985, dated 1986).
